This is an account of results in patent publication US6022561A, “Bilayers preparations” (Scotia Lipidteknik AB, priority 1994, dated 2000).

Where a name gives a salt, the structure may show the parent alone.

Series [1] has as its system human whole blood. Description: Test 4. In vitro haemolysis test. It is filed as cell-based. The note with it: Li-GLA dissolved in 0.9% saline. Here is the method: The samples were then incubated at 37° C. in an oxygen:carbon dioxide, 95:5, enriched atmosphere, 3 l/min, for 1 h, with constant gentle shaking. […] All samples were then spun for 2 min in an Eppendorf Microfuge (Brinkman Instruments Ltd, Canada) and finally analyzed on a centrifugal analyser (Cobas Bioanalyser; Hoffmann-La Roche Ltd, Canada) with UV scan of 540 nm.

Series [2] deals with haemolysis. Kind of series: Haemolysis in vivo, preliminary studies. Also noted: species or system rats.
In series [3] the test system is cancer cells. Kind of series: Activity against cancer cells in vitro. It is filed as cell-based.

For `CCCCC/C=C\C/C=C\C/C=C\CCCCC(=O)O` [Li-GLA, lithium salt of gammalinolenic acid], in series [1], the “Concentration causing 100% haemolysis” value lay within 4000 to 5000 µM. Further, the “"Red urine" in rats” value in series [2] is on record as “does”. For the same compound, the “Activity against cancer cells in vitro, free vs liposomal Li-GLA” value in series [3] is “almost identical”.
